Toxic doses and inconclusive results are not listed. Cut-off read from the data, not from the text of the source: active = T/C of 150% or more; inactive = T/C below 125%.
System: L1210 leukemia ip in BDF1 mice, survival T/C
Assay: NCI In Vivo Anticancer Drug Screen. Data for tumor model L1210 Leukemia (intraperitoneal) in B6D2F1 (BDF1) mice
Conditions: endpoint: mean survival time, higher = longer survival
Method in brief: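 Read-out is survival time, reported as the treated-group measurement over the vehicle-control measurement.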

[1] = dose: 100.0 mg/kg/injection, schedule: Q01DX001 (ip), vehicle: saline
[2] = dose: 200.0 mg/kg/injection, schedule: Q01DX001 (ip), vehicle: saline
[3] = dose: 400.0 mg/kg/injection, schedule: Q01DX001 (ip), vehicle: saline

Measured: T/C

O=C1C=CC(=O)c2[nH]c(=O)ccc21
inactive: dose: 5.0 mg/kg/injection, schedule: Q01DX001 (ip), vehicle: saline 104 % of control | dose: 10.0 mg/kg/injection, schedule: Q01DX001 (ip), vehicle: saline 107 % of control

OCC1OC(n2cnc3c([Se]Cc4ccccc4)ncnc32)C(O)C1O (stereo not drawn)
inactive: dose: 1.56 mg/kg/injection, schedule: Q01DX005 (ip), vehicle: saline 97 % of control | dose: 3.12 mg/kg/injection, schedule: Q01DX005 (ip), vehicle: saline 94 % of control | dose: 3.12 mg/kg/injection, schedule: Q01DX009 (ip), vehicle: saline 103 % of control | dose: 6.25 mg/kg/injection, schedule: Q01DX005 (ip), vehicle: saline 97 % of control | dose: 6.25 mg/kg/injection, schedule: Q01DX009 (ip), vehicle: saline 95 % of control | dose: 12.5 mg/kg/injection, schedule: Q01DX005 (ip), vehicle: saline 110 % of control | dose: 12.5 mg/kg/injection, schedule: Q01DX009 (ip), vehicle: saline 105 % of control

COCCNC(=O)SCCC(=O)O
inactive: [1] 96 % of control | [2] 100 % of control | [3] 100 % of control

O=C(Nc1cccc(Br)c1)c1ccc([N+](=O)[O-])s1
inactive: dose: 50.0 mg/kg/injection, schedule: Q01DX005 (ip), vehicle: water 89 % of control | dose: 100.0 mg/kg/injection, schedule: Q01DX005 (ip), vehicle: water 89 % of control | dose: 200.0 mg/kg/injection, schedule: Q01DX005 (ip), vehicle: water 89 % of control | dose: 400.0 mg/kg/injection, schedule: Q01DX005 (ip), vehicle: water 87 % of control

[O-][n+]1ccccc1Br
inactive: dose: 50.0 mg/kg/injection, schedule: Q01DX009 (ip), vehicle: water 104 % of control | dose: 100.0 mg/kg/injection, schedule: Q01DX009 (ip), vehicle: water 98 % of control | dose: 100.0 mg/kg/injection, schedule: Q04DX003 (ip), vehicle: water 95 % of control | dose: 150.0 mg/kg/injection, schedule: Q01DX009 (ip), vehicle: water 95 % of control | dose: 200.0 mg/kg/injection, schedule: Q04DX003 (ip), vehicle: water 115 % of control

Cc1ccc(S(=O)(=O)OC2C(C3CSC(=O)O3)OC3OC(C)(C)OC32)cc1 (stereo not drawn)
inactive: dose: 25.0 mg/kg/injection, schedule: Q04DX002 (ip), vehicle: Klucel (hydroxypropylcellulose) (HPC) 103 % of control | dose: 50.0 mg/kg/injection, schedule: Q04DX002 (ip), vehicle: Klucel (hydroxypropylcellulose) (HPC) 100 % of control | dose: 100.0 mg/kg/injection, schedule: Q04DX002 (ip), vehicle: Klucel (hydroxypropylcellulose) (HPC) 97 % of control

Cc1cc(P(=O)(O)O)ccc1Cl
inactive: dose: 100.0 mg/kg/injection, schedule: Q01DX009 (ip), vehicle: acetone 87 % of control | dose: 200.0 mg/kg/injection, schedule: Q01DX009 (ip), vehicle: acetone 90 % of control

CC1(C)OC2C(CO)OC(n3nnc4c(SCc5ccccc5)nc(N)nc43)C2O1 (stereo not drawn)
inactive: dose: 100.0 mg/kg/injection, schedule: Q01DX001 (ip), vehicle: Klucel (hydroxypropylcellulose) (HPC) 98 % of control | dose: 200.0 mg/kg/injection, schedule: Q01DX001 (ip), vehicle: Klucel (hydroxypropylcellulose) (HPC) 92 % of control | dose: 400.0 mg/kg/injection, schedule: Q01DX001 (ip), vehicle: Klucel (hydroxypropylcellulose) (HPC) 101 % of control

O=[N+]([O-])c1cc([N+](=O)[O-])c2ccc(Cl)nc2c1O
inactive: [1] 98 % of control | [2] 98 % of control | [3] 96 % of control

Cc1ccc(C(C)C)c(OC(=O)NCCCCCCNC(=O)Oc2cc(C)ccc2C(C)C)c1
inactive: dose: 100.0 mg/kg/injection, schedule: Q01DX009 (ip), vehicle: Klucel (hydroxypropylcellulose) (HPC) 93 % of control | dose: 200.0 mg/kg/injection, schedule: Q01DX009 (ip), vehicle: Klucel (hydroxypropylcellulose) (HPC) 94 % of control | dose: 400.0 mg/kg/injection, schedule: Q01DX009 (ip), vehicle: Klucel (hydroxypropylcellulose) (HPC) 98 % of control

CCC#CC(=O)OCCCCCC
inactive: dose: 100.0 mg/kg/injection, schedule: Q04DX002 (ip), vehicle: saline 107 % of control | dose: 200.0 mg/kg/injection, schedule: Q04DX002 (ip), vehicle: saline 100 % of control | dose: 400.0 mg/kg/injection, schedule: Q04DX002 (ip), vehicle: saline 103 % of control
